Results on eleven compounds are retold here after ChEMBL document CHEMBL1201862, “PubChem BioAssay data set” (2004).

Test systems include A549; DLD-1; DMS-114; HCC 2998; HOP-18; HOP-62; K562; LOX IMVI; MOLT-4; NCI-H460; OVCAR-3; OVCAR-5; RPMI-8226; RXF 393; SNB-78; SR; SW-620; TK-10; UO-31.
What all share (assay): growth of human tumour cells (NCI), 48 h

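Compound exposure: 48 hours, 5 concentrations, 96-well plates. Here, GI50 denotes the concentration required for 50% inhibition of growth.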 The source made the active and inactive calls. Cut-off read from the data, not from the text of the source: active = GI50 up to about 1.1 µM and inactive = higher.

Consider `COc1ccc2[nH]c3c4c(ccc3c2c1)C(=O)C=CC4=O`, for which the GI50 in the test with A549 is 28.6 µM (inactive); in the test on DLD-1 it was 2.54 µM (inactive); with DMS-114 it was 11.8 µM (inactive); in the test with HCC 2998 it was 22.5 µM (inactive); in the test with HOP-18, 10.8 µM (inactive); in the test on HOP-62 it was 51.2 µM (inactive). For the same compound, the GI50 with K562 was 1.53 µM (inactive); in the test with LOX IMVI it was 9.31 µM (inactive); in the test on MOLT-4, 0.448 µM (active); with NCI-H460, 24.8 µM (inactive); in the test on OVCAR-3, 8.36 µM (inactive); in the test on OVCAR-5, 20.4 µM (inactive). Besides, the GI50 with RPMI-8226 is 2.08 µM (inactive); with RXF 393, 2.48 µM (inactive); in the test on SNB-78, 16.3 µM (inactive); in the test with SR it was 0.333 µM (active); in the test on SW-620, 2.39 µM (inactive); with TK-10, 14.6 µM (inactive). Moreover, in the test on UO-31, the GI50 was 14.8 µM (inactive).

Take `CN(C)Cc1cc(/C(=C(\C#N)c2ccccc2)c2ccc(O)cc2)ccc1O`: the GI50 in the test on A549 is 24.6 µM (inactive); in the test on DLD-1 it was 20.8 µM (inactive); in the test on DMS-114, 15.1 µM (inactive); in the test on HCC 2998, 15.5 µM (inactive); with HOP-18, 19.9 µM (inactive); in the test with HOP-62, 14.4 µM (inactive). Also, the GI50 in the test with K562 was 20 µM (inactive); with LOX IMVI it was 12.1 µM (inactive); with MOLT-4, 15.3 µM (inactive); with NCI-H460, 19.6 µM (inactive); in the test with OVCAR-3, 18.7 µM (inactive); in the test with OVCAR-5 it was 26.2 µM (inactive). In addition, the GI50 was 20.2 µM (inactive) in the test on RPMI-8226; 3.96 µM (inactive) in the test with RXF 393; 32.1 µM (inactive) with SNB-78; 12.9 µM (inactive) in the test on SR; 21 µM (inactive) in the test on SW-620; 23 µM (inactive) in the test on TK-10. Further, the GI50 with UO-31 was 20.4 µM (inactive).

Take `O=S1(=O)OCCOS(=O)(=O)C1Cl`: the GI50 with A549, with DLD-1, in the test on DMS-114, with HCC 2998, with HOP-18 and with HOP-62 was > 100 µM (inactive) throughout. The GI50 in the test on K562, in the test on MOLT-4, with OVCAR-3, in the test with RPMI-8226, in the test on SNB-78 and in the test on SR was > 100 µM (inactive) in each case. Moreover, the GI50 in the test on SW-620, in the test with TK-10 and with UO-31 was > 100 µM (inactive) in each case.

For the compound `O=C(Nc1ccc(Cl)cc1Cl)c1c/c(=N\O)c2ccc(O)cc2o1`, the GI50 in the test with A549, in the test with DLD-1, in the test on DMS-114, in the test on HOP-18, in the test on HOP-62 and in the test with K562 was > 100 µM (inactive) in each case. The GI50 in the test on LOX IMVI, in the test with MOLT-4, with NCI-H460, with OVCAR-3, in the test on OVCAR-5 and in the test with RPMI-8226 was > 100 µM (inactive) each time. In addition, the GI50 in the test on RXF 393, with SNB-78, with SR, in the test with SW-620, with TK-10 and in the test on UO-31 was > 100 µM (inactive) in each case.

`CCCC/C(C)=N/NC(N)=S`: the GI50 in the test with A549, in the test on DLD-1, with DMS-114, in the test on HCC 2998, in the test with HOP-18 and in the test with HOP-62 was > 100 µM (inactive) throughout. The GI50 in the test with K562, with LOX IMVI, in the test with MOLT-4, in the test with NCI-H460, in the test with OVCAR-3 and in the test with OVCAR-5 was > 100 µM (inactive) throughout. Moreover, the GI50 in the test on RPMI-8226, in the test with RXF 393, in the test on SNB-78, in the test with SR, in the test on SW-620 and in the test with TK-10 was > 100 µM (inactive) in each case. Moreover, in the test with UO-31, the GI50 is > 100 µM (inactive).

Turning to `O=C(CC(=O)c1ccc([N+](=O)[O-])cc1)C(=O)Nc1nccs1`, the GI50 in the test on A549 is > 100 µM (inactive); in the test with DLD-1, > 100 µM (inactive); in the test with DMS-114 it was > 40.5 µM (inactive); with HCC 2998 it was > 100 µM (inactive); in the test with HOP-18, > 100 µM (inactive); in the test on HOP-62 it was > 100 µM (inactive). Moreover, the GI50 with K562, with LOX IMVI, in the test on MOLT-4, in the test with NCI-H460, with OVCAR-3 and in the test with OVCAR-5 was > 100 µM (inactive) in each case. Also, the GI50 in the test on RPMI-8226, in the test with RXF 393, in the test on SNB-78, in the test with SR, in the test on SW-620 and in the test with TK-10 was > 100 µM (inactive) each time. In the test on UO-31, the GI50 was > 100 µM (inactive).

Take `COc1ccc(/C(Cl)=C(\C=O)c2ccc(Cl)cc2)cc1OC`: the GI50 is 6.17 µM (inactive) in the test with A549; 5.12 µM (inactive) in the test with DLD-1; 4.47 µM (inactive) in the test on DMS-114; 14.9 µM (inactive) in the test on HCC 2998; 19.1 µM (inactive) in the test with HOP-18; 15.9 µM (inactive) in the test with HOP-62. Also, the GI50 in the test with K562 was 3.69 µM (inactive); in the test with LOX IMVI, 3.45 µM (inactive); in the test with MOLT-4 it was 2.12 µM (inactive); in the test on NCI-H460, 3.54 µM (inactive); with OVCAR-3 it was 5.74 µM (inactive); in the test on OVCAR-5 it was 85.1 µM (inactive). Further, the GI50 was 3.32 µM (inactive) in the test with RPMI-8226; 6.01 µM (inactive) in the test on RXF 393; 5.82 µM (inactive) with SNB-78; 2.49 µM (inactive) in the test on SR; 3.75 µM (inactive) with SW-620; 5.26 µM (inactive) in the test with TK-10. Also, the GI50 with UO-31 is 4.68 µM (inactive).

For `CC1(C)OC(=O)C(c2ccsc2)C(=O)O1`, the GI50 in the test on A549, with DLD-1, in the test on DMS-114, with HCC 2998, in the test on HOP-18 and in the test on HOP-62 was > 100 µM (inactive) throughout. For the same compound, the GI50 with K562, in the test on LOX IMVI, with MOLT-4, with NCI-H460, in the test on OVCAR-3 and in the test on OVCAR-5 was > 100 µM (inactive) throughout. Moreover, the GI50 in the test on RPMI-8226, with RXF 393, in the test on SNB-78, with SR, with SW-620 and in the test with TK-10 was > 100 µM (inactive) throughout. Further, in the test with UO-31, the GI50 is > 100 µM (inactive).

Regarding `O=C(Nc1ccc(C(F)(F)F)cc1[N+](=O)[O-])C(=O)Nn1c(S)nc2ccccc2c1=O`, the GI50 with A549, with DLD-1, in the test on DMS-114, with HCC 2998, with HOP-18 and in the test on HOP-62 was > 100 µM (inactive) each time. Also, the GI50 in the test on K562, with LOX IMVI, in the test on MOLT-4, in the test with NCI-H460, with OVCAR-5 and in the test on RPMI-8226 was > 100 µM (inactive) each time. In addition, the GI50 in the test on RXF 393, with SNB-78, in the test on SR, in the test with SW-620, with TK-10 and in the test with UO-31 was > 100 µM (inactive) throughout.

In the case of `COc1cc(OC)c([C@@H]2OC(=O)C3C2C(=O)O[C@H]3c2cc(OC)c(OC)cc2OC)cc1OC` (some centres undefined), the GI50 was > 100 µM (inactive) in the test on A549; > 100 µM (inactive) in the test on DLD-1; 72.4 µM (inactive) with DMS-114; > 100 µM (inactive) in the test on HCC 2998; > 100 µM (inactive) in the test on HOP-18; > 100 µM (inactive) in the test with HOP-62. The GI50 in the test with K562, in the test with MOLT-4, in the test with NCI-H460, in the test on OVCAR-3, in the test on RPMI-8226 and in the test on RXF 393 was > 100 µM (inactive) throughout. The GI50 in the test on SNB-78 was > 100 µM (inactive); in the test on SR, 51.6 µM (inactive); with SW-620 it was > 10 µM (inactive); in the test on UO-31 it was > 100 µM (inactive).

Consider `Cc1c(N)nc(C(CC(N)=O)NCC(N)C(N)=O)nc1C(=O)NC(C(=O)NC(C)C(O)C(C)C(=O)NC(C(=O)NCCc1nc(-c2nc(C(=O)NCCCNCCCCN)cs2)cs1)C(C)O)C(OC1OC(CO)C(O)C(O)C1OC1OC(CO)C(O)C(OC(N)=O)C1O)c1c[nH]cn1` (centres undefined), for which the GI50 was 4.81 µM (inactive) in the test with A549; > 10 µM (inactive) in the test on DLD-1; 1.85 µM (inactive) in the test with DMS-114; > 10 µM (inactive) with HCC 2998; > 10 µM (inactive) with HOP-18; 0.321 µM (active) with HOP-62. The GI50 is > 10 µM (inactive) in the test on K562; 0.461 µM (active) in the test on LOX IMVI; 2.94 µM (inactive) with MOLT-4; 0.143 µM (active) in the test with NCI-H460; > 6.28 µM (inactive) in the test with OVCAR-3; > 10 µM (inactive) with OVCAR-5. For the same compound, the GI50 in the test with RPMI-8226 was > 10 µM (inactive); in the test on RXF 393, 0.29 µM (active); with SNB-78, > 10 µM (inactive); in the test on SW-620 it was > 10 µM (inactive); in the test on TK-10, > 10 µM (inactive); in the test with UO-31, 2.36 µM (inactive).
